# What was measured:
# [1] = test system: Trypanosoma cruzi; experiment: Antiparasitic activity against Trypanosoma cruzi Tulahuen C4 amastigotes stage forms incubated for 96 hrs by beta-galactosidase reporter gene assay; type: functional, organism-based; settings: Tulahuen C4, 96 h
# [2] = test system: Trypanosoma brucei rhodesiense; experiment: Antiparasitic activity against Trypanosoma brucei rhodesiense STIB 900 trypomastigotes stage forms incubated for 72 hrs by Alamar blue staining based fluorometric assay; type: functional, organism-based; settings: STIB 900, 72 h
# [3] = test system: L6; experiment: Cytotoxicity against rat L6 cells incubated for 72 hrs by Alamar Blue staining based fluorometric assay; type: cell-based; settings: L6, 72 h
# [4] = test system: Leishmania donovani; experiment: Antiparasitic activity against Leishmania donovani MHOM/ET/67/L82 amastigotes/axenic stage forms incubated for 72 hrs by Alamar Blue staining based fluorometric assay; type: functional, organism-based; settings: MHOM/ET/67/L82, 72 h
# [5] = test system: Plasmodium falciparum; experiment: Antiparasitic activity against Plasmodium falciparum K1 IEF stage forms incubated for 72 hrs by Alamar Blue staining based fluorometric assay; settings: K1, 72 h
# [6] = test system: Plasmodium falciparum; experiment: Antiparasitic activity against chloroquine-sensitive Plasmodium falciparum 3D7; type: functional, organism-based
# [7] = test system: Plasmodium falciparum; experiment: Antiparasitic activity against chloroquine-resistant Plasmodium falciparum Dd2; type: functional, organism-based
SMILES,IC50 [1],IC50 [2],IC50 [3],IC50 [4],IC50 [5],IC50 [6],IC50 [7]
N=C(N)NCCCCc1nccc2c3ccc(Br)cc3n(O)c12 [OPACALINE B],107 µM,27 µM,120 µM,101 µM,4.5 µM,,
O=C(Cn1ccnc1[N+](=O)[O-])NCc1ccccc1 [BENZNIDAZOLE],1.8 µM,,,,,,
COc1cc([C@@H]2c3cc4c(cc3[C@H](O)[C@H]3COC(=O)[C@H]23)OCO4)cc(OC)c1OC [PODOFILOX],,,0.019 µM,,,,
N=C(N)NCCCCc1nccc2c1[nH]c1cc(Br)ccc12 [OPACALINE A],86 µM,30 µM,79 µM,130 µM,2.5 µM,,
O=C1c2ccccc2C(=O)N1CCCC1NCCc2c1[nH]c1ccccc21 (stereo not given),51 µM,17 µM,110 µM,150 µM,14 µM,,
N=C(N)NCCCc1nccc2c1[nH]c1ccccc12,130 µM,7.7 µM,101 µM,> 200 µM,7.8 µM,,
CCCCCCCCCCCCCCCCOP(=O)([O-])OCC[N+](C)(C)C [MILTEFOSINE],,,,0.53 µM,,,
N=C(N)NCCC[C@H]1NCCc2c1[nH]c1cc(Br)ccc21,,,,,,3.5 µM,5.4 µM
N=C(N)NCCCCc1nccc2c1[nH]c1ccccc12,110 µM,12 µM,84 µM,> 200 µM,6.4 µM,,

# Source: ChEMBL document CHEMBL1821712, “Antimalarial β-carbolines from the New Zealand ascidian Pseudodistoma opacum” (J Nat Prod, 2011)
